How the values were obtained:
E. faecalis (CL 4877) = assay: Zone of inhibition screen, 96 well agar array format; type: cell-based; design: scale not given here; details: zone of inhibition relative to 1 mg/ml stock solution of p-chlorobiphenylvancomycin
In short: (§1)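 Compounds are screened one by one for antibacterial effect in an agar array of 96 wells, using the same set of strains throughout.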

S. aureus (ATCC 29213) = assay: as above; type: cell-based; design: scale not given here; details: zone of inhibition relative to 1 mg/ml stock solution of p-chlorobiphenylvancomycin
In short: as §1

E. faecalis ATCC 29212 = assay: MIC determination in BHI media, OD600; type: cell-based; details: BHI + 0.1% casamino acids, 18 hours at 37° C., ≧90% OD600 inhibition
In short: (§2)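 Compounds are dissolved and serially diluted in DMSO, then combined with logarithmically growing cells adjusted to roughly 5×10^5 CFU/ml. Plates incubate 18 hours at 37° C before turbidity is measured on a microplate reader.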

E. faecium ATCC 49624 = assay: MIC determination in BHI media, OD600; type: cell-based; details: BHI + 0.1% casamino acids, 18 hours at 37° C., ≧90% OD600 inhibition
In short: as §2

S aureus ATCC 29213 = assay: MIC determination in BHI media, OD600; type: cell-based; details: BHI + 0.1% casamino acids, 18 hours at 37° C., ≧90% OD600 inhibition
In short: as §2

S. Aureus ATCC 33591 = assay: MIC determination in BHI media, OD600; type: cell-based; details: BHI + 0.1% casamino acids, 18 hours at 37° C., ≧90% OD600 inhibition
In short: as §2

E. faceium (ATCC 49624) = assay: Zone of inhibition screen, 96 well agar array format;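 note: score 3 means fourfold and score 4 sixteenfold the reference zone size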; type: cell-based, E. faecium; details: zone of inhibition relative to 1 mg/ml stock solution of p-chlorobiphenylvancomycin
In short: as §1

Structure (SMILES)	MIC E. faecalis ATCC 29212 (E. faecalis ATCC 29212)	MIC E. faecium ATCC 49624 (E. faecium ATCC 49624)	MIC S. aureus ATCC 29213 (S aureus ATCC 29213)	MIC S. aureus ATCC 33591 (S. Aureus ATCC 33591)	zone score, E. faecalis CL 4877 (E. faecalis (CL 4877))	zone score, S. aureus ATCC 29213 (S. aureus (ATCC 29213))	zone score, E. faecium ATCC 49624 (E. faceium (ATCC 49624))
C[C@H]1O[C@H](O[C@H]2[C@H](Oc3c4cc5cc3Oc3ccc(cc3Cl)[C@@H](O)[C@@H](NC(=O)[C@@H](N)Cc3ccccc3)C(=O)N[C@@H](CC(N)=O)C(=O)N[C@H]5C(=O)N[C@H]3C(=O)N[C@H](C(=O)N[C@@H](C(=O)O)c5cc(O)cc(O)c5-c5cc3ccc5O)[C@H](O)c3ccc(c(Cl)c3)O4)O[C@H](CO)[C@@H](O)[C@@H]2O)C[C@@](C)(NCc2ccc(-c3ccc(Cl)cc3)cc2)[C@H]1O [Compound 7]	0.78 µg/mL	0.12 µg/mL	0.39 µg/mL	0.39 µg/mL	2	2	–
CSCC[C@@H](N)C(=O)N[C@H]1C(=O)N[C@@H](CC(N)=O)C(=O)N[C@H]2C(=O)N[C@H]3C(=O)N[C@H](C(=O)N[C@@H](C(=O)O)c4cc(O)cc(O)c4-c4cc3ccc4O)[C@H](O)c3ccc(c(Cl)c3)Oc3cc2cc(c3O[C@@H]2O[C@H](CO)[C@@H](O)[C@H](O)[C@H]2O[C@@H]2C[C@@](C)(NCc3ccc(-c4ccc(Cl)cc4)cc3)[C@@H](O)[C@@H](C)O2)Oc2ccc(cc2Cl)[C@H]1O [Compound 15]	0.25 µg/mL	0.12 µg/mL	0.25 µg/mL	0.12 µg/mL	2	–	–
CC(C)[C@H](N)C(=O)N[C@H]1C(=O)N[C@@H](CC(N)=O)C(=O)N[C@H]2C(=O)N[C@H]3C(=O)N[C@H](C(=O)N[C@@H](C(=O)O)c4cc(O)cc(O)c4-c4cc3ccc4O)[C@H](O)c3ccc(c(Cl)c3)Oc3cc2cc(c3O[C@@H]2O[C@H](CO)[C@@H](O)[C@H](O)[C@H]2O[C@@H]2C[C@@](C)(NCc3ccc(-c4ccc(Cl)cc4)cc3)[C@@H](O)[C@@H](C)O2)Oc2ccc(cc2Cl)[C@H]1O [Compound 20]	0.78 µg/mL	0.25 µg/mL	0.25 µg/mL	0.39 µg/mL	–	–	2
CC(N)C(=O)NCC(=O)NC1C(=O)NC(CC(N)=O)C(=O)NC2C(=O)NC3C(=O)NC(C(=O)NC(C(=O)O)c4cc(O)cc(O)c4-c4cc3ccc4O)C(O)c3ccc(c(Cl)c3)Oc3cc2cc(c3OC2OC(CO)C(O)C(O)C2OC2CC(C)(NCc3ccc(-c4ccc(Cl)cc4)cc3)C(O)C(C)O2)Oc2ccc(cc2Cl)C1O (stereo not drawn) [Compound 36]	0.78 µg/mL	0.12 µg/mL	0.39 µg/mL	0.39 µg/mL	–	–	2
CCCCC(N)C(=O)NC1C(=O)NC(CC(N)=O)C(=O)NC2C(=O)NC3C(=O)NC(C(=O)NC(C(=O)O)c4cc(O)cc(O)c4-c4cc3ccc4O)C(O)c3ccc(c(Cl)c3)Oc3cc2cc(c3OC2OC(CO)C(O)C(O)C2OC2CC(C)(NCc3ccc(-c4ccc(Cl)cc4)cc3)C(O)C(C)O2)Oc2ccc(cc2Cl)C1O (stereo not drawn) [Compound 42]	0.78 µg/mL	0.39 µg/mL	0.39 µg/mL	0.39 µg/mL	–	–	2
CC(NCC(N)C(=O)NC1C(=O)NC(CC(N)=O)C(=O)NC2C(=O)NC3C(=O)NC(C(=O)NC(C(=O)O)c4cc(O)cc(O)c4-c4cc3ccc4O)C(O)c3ccc(c(Cl)c3)Oc3cc2cc(c3OC2OC(CO)C(O)C(O)C2OC2CC(C)(NCc3ccc(-c4ccc(Cl)cc4)cc3)C(O)C(C)O2)Oc2ccc(cc2Cl)C1O)=C1C(=O)CC(C)(C)CC1=O (stereo not drawn) [Compound 56]	0.78 µg/mL	0.12 µg/mL	0.25 µg/mL	0.25 µg/mL	–	–	2
CC1OC(OC2C(Oc3c4cc5cc3Oc3ccc(cc3Cl)C(O)C3NC(=O)C(NC(=O)C5NC(=O)C(CC(N)=O)NC(=O)C(NC(=O)C(N)CCCNC(N)=O)C(O)c5ccc(c(Cl)c5)O4)c4ccc(O)c(c4)-c4c(O)cc(O)cc4C(C(=O)O)NC3=O)OC(CO)C(O)C2O)CC(C)(NCc2ccc(-c3ccc(Cl)cc3)cc2)C1O (stereo not drawn) [Compound 62]	0.25 µg/mL	0.12 µg/mL	0.25 µg/mL	0.25 µg/mL	–	–	–
CCOC(=O)NC(CC(N)=O)C(=O)NC1C(=O)NC(CC(N)=O)C(=O)NC2C(=O)NC3C(=O)NC(C(=O)NC(C(=O)O)c4cc(O)cc(O)c4-c4cc3ccc4O)C(O)c3ccc(c(Cl)c3)Oc3cc2cc(c3OC2OC(CO)C(O)C(O)C2OC2CC(C)(NCc3ccc(-c4ccc(Cl)cc4)cc3)C(O)C(C)O2)Oc2ccc(cc2Cl)C1O (stereo not drawn) [Compound 188]	0.39 µg/mL	0.062 µg/mL	0.39 µg/mL	0.39 µg/mL	2	2	–
CNC(CC(C)C)C(=O)NC1C(=O)NC(CC(N)=O)C(=O)NC2C(=O)NC3C(=O)NC(C(=O)NC(C(=O)O)c4cc(O)cc(O)c4-c4cc3ccc4O)C(O)c3ccc(c(Cl)c3)Oc3cc2cc(c3OC2OC(CO)C(O)C(O)C2OC2CC(C)(NCc3ccc(-c4ccc(Cl)cc4)cc3)C(O)C(C)O2)Oc2ccc(cc2Cl)C1O (stereo not drawn) [Compound 329]	0.12 µg/mL	0.031 µg/mL	0.25 µg/mL	0.12 µg/mL	–	–	–
CNC(CC(C)C)C(=O)NC1C(=O)NC(CC(N)=O)C(=O)NC2C(=O)NC3C(=O)NC(C(=O)NC(C(=O)O)c4cc(O)cc(O)c4-c4cc3ccc4O)C(O)c3ccc(c(Cl)c3)Oc3cc2cc(c3OC2OC(CO)C(O)C(O)C2OC2CC(C)(NCc3ccc(-c4ccc(Cl)cc4)cc3)C(O)C(C)O2)Oc2ccc(cc2Cl)C1O (stereo not drawn) [Compound 517, Cl-Biphenyl Vancomycin, reference compound]	0.25 µg/mL	0.062 µg/mL	0.25 µg/mL	0.25 µg/mL	–	–	–

More lines, main results first:

MIC E. faecalis ATCC 29212 (E. faecalis ATCC 29212)	MIC E. faecium ATCC 49624 (E. faecium ATCC 49624)	MIC S. aureus ATCC 29213 (S aureus ATCC 29213)	MIC S. aureus ATCC 33591 (S. Aureus ATCC 33591)	Structure (SMILES)	zone score, E. faecalis CL 4877 (E. faecalis (CL 4877))	zone score, S. aureus ATCC 29213 (S. aureus (ATCC 29213))	zone score, E. faecium ATCC 49624 (E. faceium (ATCC 49624))
0.39 µg/mL	0.12 µg/mL	0.25 µg/mL	0.25 µg/mL	CNC(C(=O)NC1C(=O)NC(CC(N)=O)C(=O)NC2C(=O)NC3C(=O)NC(C(=O)NC(C(=O)O)c4cc(O)cc(O)c4-c4cc3ccc4O)C(O)c3ccc(c(Cl)c3)Oc3cc2cc(c3OC2OC(CO)C(O)C(O)C2OC2CC(C)(NCc3ccc(-c4ccc(Cl)cc4)cc3)C(O)C(C)O2)Oc2ccc(cc2Cl)C1O)C(C)C (stereo not drawn) [Compound 328]	–	–	–
0.78 µg/mL	0.12 µg/mL	0.25 µg/mL	0.25 µg/mL	CCC(C)C(NC)C(=O)NC1C(=O)NC(CC(N)=O)C(=O)NC2C(=O)NC3C(=O)NC(C(=O)NC(C(=O)O)c4cc(O)cc(O)c4-c4cc3ccc4O)C(O)c3ccc(c(Cl)c3)Oc3cc2cc(c3OC2OC(CO)C(O)C(O)C2OC2CC(C)(NCc3ccc(-c4ccc(Cl)cc4)cc3)C(O)C(C)O2)Oc2ccc(cc2Cl)C1O (stereo not drawn) [Compound 330]	–	–	–
0.25 µg/mL	0.12 µg/mL	0.25 µg/mL	0.25 µg/mL	CC(C)CC(N)C(=O)NC1C(=O)NC(CC(N)=O)C(=O)NC2C(=O)NC3C(=O)NC(C(=O)NC(C(=O)O)c4cc(O)cc(O)c4-c4cc3ccc4O)C(O)c3ccc(c(Cl)c3)Oc3cc2cc(c3OC2OC(CO)C(O)C(O)C2OC2CC(C)(NCc3ccc(-c4ccc(Cl)cc4)cc3)C(O)C(C)O2)Oc2ccc(cc2Cl)C1O (stereo not drawn) [Compound 336]	–	–	–
0.25 µg/mL	0.062 µg/mL	0.12 µg/mL	0.12 µg/mL	CCCC(N)C(=O)NC1C(=O)NC(CC(N)=O)C(=O)NC2C(=O)NC3C(=O)NC(C(=O)NC(C(=O)O)c4cc(O)cc(O)c4-c4cc3ccc4O)C(O)c3ccc(c(Cl)c3)Oc3cc2cc(c3OC2OC(CO)C(O)C(O)C2OC2CC(C)(NCc3ccc(-c4ccc(Cl)cc4)cc3)C(O)C(C)O2)Oc2ccc(cc2Cl)C1O (stereo not drawn) [Compound 337]	–	–	–
0.25 µg/mL	0.12 µg/mL	0.25 µg/mL	0.25 µg/mL	CC(C)C(N)C(=O)NC1C(=O)NC(CC(N)=O)C(=O)NC2C(=O)NC3C(=O)NC(C(=O)NC(C(=O)O)c4cc(O)cc(O)c4-c4cc3ccc4O)C(O)c3ccc(c(Cl)c3)Oc3cc2cc(c3OC2OC(CO)C(O)C(O)C2OC2CC(C)(NCc3ccc(-c4ccc(Cl)cc4)cc3)C(O)C(C)O2)Oc2ccc(cc2Cl)C1O (stereo not drawn) [Compound 339]	–	–	–
0.78 µg/mL	0.12 µg/mL	0.78 µg/mL	0.78 µg/mL	CNC(CC(C)C)C(=O)NC1C(=O)NC(CC(N)=O)C(=O)NC2C(=O)NC3C(=O)NC(C(=O)NC(C(=O)O)c4cc(O)cc(O)c4-c4cc3ccc4O)C(O)c3ccc(c(Cl)c3)Oc3cc2cc(c3OC2OC(CI)C(O)C(O)C2OC2CC(C)(NCc3ccc(-c4ccc(Cl)cc4)cc3)C(O)C(C)O2)Oc2ccc(cc2Cl)C1O (stereo not drawn) [Compound 520]	–	–	–
0.78 µg/mL	0.12 µg/mL	0.78 µg/mL	0.78 µg/mL	CC1OC(OC2C(Oc3c4cc5cc3Oc3ccc(cc3Cl)C(O)C3NC(=O)C(NC(=O)C5NC(=O)C(CC(N)=O)NC(=O)C(NC(=O)C(N)COC(C)(C)C)C(O)c5ccc(c(Cl)c5)O4)c4ccc(O)c(c4)-c4c(O)cc(O)cc4C(C(=O)O)NC3=O)OC(CN)C(O)C2O)CC(C)(NCc2ccc(-c3ccc(Cl)cc3)cc2)C1O (stereo not drawn) [Compound 521]	–	–	–
0.25 µg/mL	0.12 µg/mL	0.78 µg/mL	0.39 µg/mL	CNC(CC(C)C)C(=O)NC1C(=O)NC(CC(N)=O)C(=O)NC2C(=O)NC3C(=O)NC(C(=O)NC(C(=O)O)c4cc(O)cc(O)c4-c4cc3ccc4O)C(O)c3ccc(c(Cl)c3)Oc3cc2cc(c3OC2OC(CN)C(O)C(O)C2OC2CC(C)(NCc3ccc(-c4ccc(Cl)cc4)cc3)C(O)C(C)O2)Oc2ccc(cc2Cl)C1O (stereo not drawn) [Compound 523]	–	–	–

Reference: patent publication US6518243B1, “Desleucyl glycopeptide antibiotics and methods of making same” (Trustees of Princeton University, priority 1999, dated 2003)
